Experimental data from article PMC9428149, “Tackling recalcitrant Pseudomonas aeruginosa infections in critical illness via anti-virulence monotherapy” (Nature Communications, 2022).
Converted amounts (≈) assume the structure as drawn. Like-named read-outs stand apart in the source and are kept apart here.

Tests used:
[1] = system: pqsA promoter (PA14 PpqsA-GFPASV); test: pqsA-GFP reporter expression; assay type: cell-based, Pseudomonas aeruginosa; settings: Pseudomonas aeruginosa; for activity at 50 µM: PA14, read-out: % Production pqsA-GFP; for IC50: PA14, read-out: IC50 pqsA-GFP expression, PA14, 13 concentrations
PA14 AT/P cells = test: AT/P cells formation assay in PA14; assay type: cell-based, Pseudomonas aeruginosa; settings: Pseudomonas aeruginosa, PA14, 24 h, read-out: inhibition of AT/P cells formation
[2] = system: mvfR mutant constitutively expressing the pqsABCDE operon; assay type: cell-based; settings: Pseudomonas aeruginosa, control about 100, single replicates (Figure 4a)
MvfR protein (MvfRC87) = biological target: T1, MvfR protein (MvfRC87) (Pseudomonas aeruginosa, UniProt Q9I4X0); assay type: binding; settings: SPR
T1 construct: The MvfRC87 protein purified as in Xiao et. al., 2006; made in house
T1 sequence (Q9I4X0 87-332): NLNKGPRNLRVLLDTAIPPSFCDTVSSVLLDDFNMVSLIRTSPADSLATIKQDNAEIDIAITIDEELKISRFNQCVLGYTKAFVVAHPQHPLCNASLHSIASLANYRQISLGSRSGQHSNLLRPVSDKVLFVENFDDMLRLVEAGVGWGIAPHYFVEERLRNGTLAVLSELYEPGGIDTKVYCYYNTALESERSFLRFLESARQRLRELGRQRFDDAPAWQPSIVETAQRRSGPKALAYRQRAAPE
Method in brief: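 MvfRC87 amine-coupled to a CM7 chip (3000–5000 RU) and binding measured by SPR. Double-reference-corrected responses 5 s before end of association plotted against concentration, for inhibitor alone and with native ligand PQS, compared with responses calculated for different binding sites.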

[3] = Solubility in iPBS pH 7.4 by HPLC; assay type: physicochemical; settings: isotonic phosphate buffer (iPBS), aqueous with cosolvent or surfactant or cyclodextrin, kinetic from dmso stock; iPBS pH 7.4, HPLC; read-out: Solubility (M) in PBS
Method in brief: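 Compounds from 10 mM DMSO stock shaken 4 h at room temperature in iPBS pH 7.4 (10 mM PBS, 2.7 mM KCl, 140 mM NaCl, 0.05% Tween), then filtered. Concentration measured by HPLC-UV against a known standard solution; solubility given as ratio of compound in test solution to standard.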

[4] = system: pyocyanin production in PA14; test: Pyocyanin production assay; settings: Pseudomonas aeruginosa; for activity at 50 µM: PA14, 18 h, read-out: % Production Pyocyanin; for IC50: PA14, read-out: IC50 pyocyanin production
[5] = system: 16 MDR P. aeruginosa clinical isolates; test: Pyocyanin production in MDR clinical isolates; settings: Pseudomonas aeruginosa, 18 h, Control about 100, replicates
ΔmvfR biofilm = test: Biofilm formation of ΔmvfR mutant (off-target); settings: Pseudomonas aeruginosa, PA14, 24 h, read-out: Biofilm formation, ΔmvfR + compound; PA14 about 100; single replicates (Figure 4c)
[6] = system: PA14 isogenic mutant ΔmvfR AT/P cells; test: AT/P cell formation in ΔmvfR mutant (off-target); settings: Pseudomonas aeruginosa, PA14, 24 h, read-out: AT/P cell formation, ΔmvfR + compound; PA14 about 100; single replicates (Figure 4b)
[7] = system: MvfR-regulated small molecules in PA14; test: Production of HAQs, 2-AA, DHQ and AA in PA14 cultures (LC-MS); settings: Pseudomonas aeruginosa
Protocol: The HAQs HHQ, PQS, HQNO, and non-HAQs: 2-AA and DHQ produced by PA14 cells were quantified in the presence of NAMs. The overnight grown starter culture was diluted 1:100 in 5 mL LB media in a glass tube and was allowed to grow in the presence (50 µM) or absence of compound at 37 °C and 200 rpm in an incubator shaker until OD600 was 3. Bacterial cultures were subsequently mixed 1:1 (400 μL: 400 μL) with 100% methanol containing 20 ppm (20 μg mL^−1) of tetradeutero-PQS (PQS-D4) and 10 ppm of tetradeutero-HHQ (HHQ-D4) in a 1.5 mL Eppendorf tube. The mixture was vortexed for 5 seconds and spun down for 5 minutes at 12,000 x g. A 700 μL aliquot of the supernatant was removed and stored in glass vials at −20 °C until further liquid chromatography-mass spectrophotometry (LC/MS) analysis as previously described in Lepine et al., 2003[66]. LC/MC analysis was performed using a Micromass Quattro II triple quadrupole mass spectrometer (Micromass Canada, Pointe-Claire, Canada) in positive electrospray ionization mode, interfaced to an HP1100 HPLC equipped with a 4.5 × 150 mm reverse-phase C8 column.
GraphPad Prism 9.2.0 software was used to plot the IC50 curve against the percent inhibition of these small molecules’ production at each concentration.

[8] = read-out: 2-AA, ΔmvfR-pqsABCD strain
[9] = read-out: DHQ, ΔmvfR-pqsABCD strain
[10] = read-out: HHQ, ΔmvfR-pqsABCD strain
[11] = read-out: HQNO, ΔmvfR-pqsABCD strain
[12] = read-out: PQS, ΔmvfR-pqsABCD strain
[13] = read-out: Pyocyanin production relative to Control, clinical isolate LGR-4325
[14] = read-out: Pyocyanin production relative to Control, clinical isolate LGR-4326
[15] = read-out: Pyocyanin production relative to Control, clinical isolate LGR-4327
[16] = read-out: Pyocyanin production relative to Control, clinical isolate LGR-4328
[17] = read-out: Pyocyanin production relative to Control, clinical isolate LGR-4330
[18] = read-out: Pyocyanin production relative to Control, clinical isolate LGR-4331 (first section, r117)
[19] = read-out: Pyocyanin production relative to Control, clinical isolate LGR-4331 (second section, r140)
[20] = read-out: Pyocyanin production relative to Control, clinical isolate LGR-4333
[21] = read-out: Pyocyanin production relative to Control, clinical isolate LGR-4343
[22] = read-out: Pyocyanin production relative to Control, clinical isolate LGR-4344
[23] = read-out: Pyocyanin production relative to Control, clinical isolate LGR-4348
[24] = read-out: Pyocyanin production relative to Control, clinical isolate LGR-4356
[25] = read-out: Pyocyanin production relative to Control, clinical isolate LGR-4362
[26] = read-out: Pyocyanin production relative to Control, clinical isolate LGR-4363
[27] = read-out: Pyocyanin production relative to Control, clinical isolate LGR-4364 (first section, r326)
[28] = read-out: Pyocyanin production relative to Control, clinical isolate LGR-4364 (second section, r349)
[29] = PA14, read-out: % Production 2-AA
[30] = PA14, read-out: % Production AA
[31] = PA14, read-out: % Production DHQ
[32] = PA14, read-out: % Production HHQ
[33] = PA14, read-out: % Production HQNO
[34] = PA14, read-out: % Production PQS
[35] = PA14, read-out: HHQ production inhibition
[36] = PA14, read-out: HQNO production inhibition
[37] = PA14, read-out: PQS production inhibition
[38] = PA14, read-out: inhibition of 2-AA production
[39] = PA14, read-out: inhibition of DHQ production

N#Cc1ccc(NC(=O)CC(=O)Nc2ccc(C#N)nc2)cc1 [D77]
activity at 50 µM [1]: 1%
IC50 [1]: 6.4 µM
inhibition at 10 µM (PA14 AT/P cells): ≥ 51%
activity at 50 µM [2, 8]: 104%
activity at 50 µM [2, 9]: 94.5%
activity at 50 µM [2, 10]: 98%
activity at 50 µM [2, 11]: 102%
activity at 50 µM [2, 12]: 90.2%
Response Unit (RU) (MvfR protein (MvfRC87); Concentration 1.00E-05 M): 30.9 RU
Response Unit (RU) (MvfR protein (MvfRC87); Concentration 1.00E-06 M): 19.8 RU
Response Unit (RU) (MvfR protein (MvfRC87); Concentration 1.00E-07 M): 5.9 RU
Response Unit (RU) (MvfR protein (MvfRC87); Concentration 1.00E-08 M): 0.7 RU
Response Unit (RU) (MvfR protein (MvfRC87); Concentration 3.16E-06 M): 26.6 RU
Response Unit (RU) (MvfR protein (MvfRC87); Concentration 3.16E-07 M): 11.8 RU
Response Unit (RU) (MvfR protein (MvfRC87); Concentration 3.16E-08 M): 2.2 RU
solubility at 4 h [3]: 3.9e-05 M (≈ 11.9 µg/mL)
activity at 50 µM [4]: 7%
IC50 [4]: 4.07 µM
activity at 10 µM [5, 13]: 15%
activity at 10 µM [5, 14]: 12.1%
activity at 10 µM [5, 15]: 20.6%
activity at 10 µM [5, 16]: 25.6%
activity at 10 µM [5, 17]: 35.1%
activity at 10 µM [5, 18]: 18.8%
activity at 10 µM [5, 19]: 8.31%
activity at 10 µM [5, 20]: 11.8%
activity at 10 µM [5, 21]: 22.6%
activity at 10 µM [5, 22]: 26.1%
activity at 10 µM [5, 23]: 19%
activity at 10 µM [5, 24]: 14.3%
activity at 10 µM [5, 25]: 39.2%
activity at 10 µM [5, 26]: 18.5%
activity at 10 µM [5, 27]: 18.9%
activity at 10 µM [5, 28]: 16.9%
activity at 10 µM (ΔmvfR biofilm): 23.6%
activity at 10 µM [6]: 29.3%
activity at 50 µM [7, 29]: 19%
activity at 50 µM [7, 30]: 777%
activity at 50 µM [7, 31]: 20%
activity at 50 µM [7, 32]: 10%
activity at 50 µM [7, 33]: 64%
activity at 50 µM [7, 34]: 24%
inhibition at 50 µM [7, 35]: 89 to 99%
inhibition at 50 µM [7, 36]: 40 to 92%
inhibition at 50 µM [7, 37]: 76 to 97%
inhibition at 50 µM [7, 38]: 82 to 95%
inhibition at 50 µM [7, 39]: 82 to 96%

CC(C(=O)Nc1ccc(C#N)cc1)C(=O)Nc1ccc(C#N)cc1 [D80]
activity at 50 µM [1]: 10%
IC50 [1]: 10.6 µM
inhibition at 10 µM (PA14 AT/P cells): ≥ 51%
activity at 50 µM [2, 8]: 101%
activity at 50 µM [2, 9]: 101%
activity at 50 µM [2, 10]: 96.1%
activity at 50 µM [2, 11]: 86.4%
activity at 50 µM [2, 12]: 99.4%
Response Unit (RU) (MvfR protein (MvfRC87); Concentration 1.00E-05 M): 35.4 RU
Response Unit (RU) (MvfR protein (MvfRC87); Concentration 1.00E-06 M): 22.9 RU
Response Unit (RU) (MvfR protein (MvfRC87); Concentration 1.00E-07 M): 7 RU
Response Unit (RU) (MvfR protein (MvfRC87); Concentration 1.00E-08 M): 0.6 RU
Response Unit (RU) (MvfR protein (MvfRC87); Concentration 3.16E-06 M): 30.6 RU
Response Unit (RU) (MvfR protein (MvfRC87); Concentration 3.16E-07 M): 13.9 RU
Response Unit (RU) (MvfR protein (MvfRC87); Concentration 3.16E-08 M): 2.6 RU
solubility at 4 h [3]: 2.9e-05 M (≈ 9.23 µg/mL)
activity at 50 µM [4]: 7%
IC50 [4]: 3.6 µM
activity at 10 µM [5, 13]: 40%
activity at 10 µM [5, 14]: 39.5%
activity at 10 µM [5, 15]: 32.3%
activity at 10 µM [5, 16]: 30.6%
activity at 10 µM [5, 17]: 15.3%
activity at 10 µM [5, 18]: 41.5%
activity at 10 µM [5, 19]: 37.9%
activity at 10 µM [5, 20]: 65.7%
activity at 10 µM [5, 21]: 62%
activity at 10 µM [5, 22]: 31.8%
activity at 10 µM [5, 23]: 39.5%
activity at 10 µM [5, 24]: 32.3%
activity at 10 µM [5, 25]: 30.6%
activity at 10 µM [5, 26]: 15.3%
activity at 10 µM [5, 27]: 41.5%
activity at 10 µM [5, 28]: 37.9%
activity at 10 µM (ΔmvfR biofilm): 42.3%
activity at 10 µM [6]: 36%
activity at 50 µM [7, 29]: 16%
activity at 50 µM [7, 30]: 832%
activity at 50 µM [7, 31]: 20%
activity at 50 µM [7, 32]: 8%
activity at 50 µM [7, 33]: 64%
activity at 50 µM [7, 34]: 20%
inhibition at 50 µM [7, 35]: 89 to 99%
inhibition at 50 µM [7, 36]: 40 to 92%
inhibition at 50 µM [7, 37]: 76 to 97%
inhibition at 50 µM [7, 38]: 82 to 95%
inhibition at 50 µM [7, 39]: 82 to 96%
